Assay results published in patent US20040147739A1, “Novel anti-infectives” (priority 2003, published 2004).

| SMILES | melting point |
| --- | --- |
| CC(Br)CCn1c(=O)c(C2=Nc3ccccc3S(=O)(=O)N2)c(O)c2ccccc21 (centres unmarked) [Example 10, 1-(3-Bromobutyl)-3-(1,1-dioxo-1,2-dihydrobenzo[1,2,4]thiadiazin-3-yl)-4-hydroxy-1-1H-quinolin-2-one] | 190 to 194.5 °C (dec.) |
| O=c1c(C2=Nc3ccccc3S(=O)(=O)N2)c(O)c2ccccc2n1CC1CCCCC1 [Example 11, 1-Cyclohexylmethyl-3-(1,1-dioxo-1,2-dihydrobenzo[1,2,4]thiadiazin-3-yl)-4-hydroxy-1H-quinolin-2-one] | 232 to 235 °C |
| CC(C)=CCn1c(=O)c(C2=Nc3ccccc3S(=O)(=O)N2)c(O)c2ccccc21 [Example 12, 3-(1,1-Dioxo-1,2-dihydrobenzo[1,2,4]thiadiazin-3-yl)-4-hydroxy-1-(3-methylbut-2-eneyl)-1H-quinolin-2-one] | 249.1 to 251.1 °C |
| O=c1c(C2=Nc3ccccc3S(=O)(=O)N2)c(O)c2ccccc2n1CCCC(F)(F)F [Example 18, 3-(1, l-Dioxo-1,2-dihydrobenzo[1,2,4]thiadiazin-3-yl)-4-hydroxy-1-(4,4,4-trifluorobutyl)-1H-quinolin-2-one] | 248.9 to 250 °C |
| O=c1c(C2=Nc3ccccc3S(=O)(=O)N2)c(O)c2ccccc2n1CCCCO [Example 20, 3-(1,1-Dioxo-1,2-dihydrobenzo[1,2,4]thiadiazin-3-yl)-4-hydroxy-1-(4-hydroxybutyl)-1H-quinolin-2-one] | 238.4 to 239.6 °C |
